Source: BigSolDB 2.1

CC(C)N1C(=O)N(c2ccccc2)CSC1=NC(C)(C)C
solubility (mole fraction)
Settings	273.15 K	278.15 K	283.15 K	288.15 K	293.15 K	298.15 K	303.15 K	308.15 K	313.15 K	318.15 K
in DMF	0.0306	0.0389	0.0493	0.0608	0.0725	0.0871	0.104	0.122	0.141	0.162
in acetone	0.03	0.0361	0.0427	0.0504	0.0593	0.0699	0.0814	0.096	0.114	0.134
in acetonitrile	0.00534	0.00774	0.0101	0.0133	0.0171	0.0219	0.0284	0.0354	0.0448	0.0564
in ethanol	0.00539	0.007	0.00917	0.0116	0.0146	0.0182	0.0228	0.0276	0.0342	0.0425
in ethyl acetate	0.0372	0.0465	0.0561	0.0679	0.0815	0.0971	0.116	0.136	0.16	0.187
in isopropanol	0.00586	0.00785	0.0103	0.0131	0.0165	0.0207	0.0254	0.031	0.0376	0.0454
in methanol	0.00377	0.00497	0.0064	0.00797	0.00998	0.0123	0.0154	0.0184	0.0225	0.0272
in n-butanol	0.00627	0.00908	0.0127	0.0167	0.0218	0.0281	0.0364	0.045	0.0577	0.0714
in n-octanol	0.00824	0.0114	0.0152	0.0197	0.0251	0.0321	0.0404	0.0505	0.063	0.0789
in n-propanol	0.00564	0.00798	0.011	0.0148	0.019	0.0254	0.0323	0.0414	0.0528	0.0668
in toluene	0.053	0.0651	0.0782	0.0924	0.11	0.128	0.15	0.172	0.198	0.227
in water	2.84e-05	3.48e-05	4.18e-05	5.08e-05	6.05e-05	7.26e-05	8.54e-05	0.000101	0.00012	0.000144
